Results reported in US6638524B2, “Cosmetics, foods and beverages supplemented with purified strictinin” (National Agricultural Research Organization, priority 2000, dated 2003).

Key:
[1] = test system: mast cells in abdominal cavity of rat; settings: literature report; cited from earlier work
[2] = test system: CεGT inducible expression by IL-4 in human peripheral blood lymphocytes; assay: expression of IgE heavy chain germline transcript (CεGT) induced by IL-4 in human peripheral blood lymphocytes; type: cell-based; settings: strictinin 25 μM added at the same time with IL-4, human peripheral blood lymphocytes, FIG. 4
Method: (§1) Each of Fr. 1 to 5 in Experimental Example 1 was evaluated for its antiallergic action in vitro by a method for the expression of a transcript of an IgE heavy chain germline transcript which was to investigate the suppression of IgE production in human B cells (IgE class switch suppression). This is a method utilizing the fact that, when human B cells are stimulated by IL-4 to induce the production of IgE, a transcription is started from the upstream intron corresponding to an ε region (Cε) in the constant domain gene of the Ig gene whereupon a transcript (CεGT: germline transcript) is expressed and, after that, a class switch of IgE is resulted by a DNA recombination. CεGT is an RNA which is always expressed before the IgE production is induced and the expressed amount of CεGT is proportional to the class switch amount of the IgE gene. Therefore, when the degree of expressed amount of CεGT is detected, it is possible to estimate the IgE class switch amount.
Human peripheral blood normal cells (monocytes; separated from the blood which was collected from a healthy human volunteer) was used instead of the human B cell line DND 39 of Experimental Example 3 and an antiallergic activity was measured by the same way as in the method for the expression of an IgE heavy chain germline transcript mentioned in Experimental Example 2. […]

[3] = test system: CεGT inducible expression by IL-4 in human B cell line DND 39; assay: expression of IgE heavy chain germline transcript (CεGT) induced by IL-4 in human B cell line DND 39 (IgE class switch suppression); type: cell-based; settings: strictinin 1, 10 and 25 μM added at the same time with IL-4, DND 39, FIG. 3
Method: as §1
A method for the expression of an IgE heavy chain germline transcript was carried out according to the following procedures. […]
Then, a cDNA library was prepared according to the following procedure. First, concentration of the extracted total RNA was measured by an absorptiometer, a portion of 10 μg was taken in a 0.6 mL tube and water was added thereto to make 11.8 μL. […]

## O=C(O[C@@H]1Cc2c(O)cc(O)cc2O[C@@H]1c1cc(O)c(O)c(O)c1)c1cc(O)c(O)c(O)c1 [epigallocatechin gallate]
[1]
  liberation of histamine from mast cells: suppress

## O=C(O[C@@H]1O[C@@H]2COC(=O)c3cc(O)c(O)c(O)c3-c3c(cc(O)c(O)c3O)C(=O)O[C@H]2[C@H](O)[C@H]1O)c1cc(O)c(O)c(O)c1 [strictinin]
[2]
  IgE class switch by addition of IL-4 (CεGT inducible expression): strongly suppressed
[3]
  IgE class switch by addition of IL-4 (CεGT inducible expression): strongly suppressed

## O=C(O[C@@H]1Cc2c(O)cc(O)cc2O[C@@H]1c1ccc(O)c(O)c1)c1cc(O)c(O)c(O)c1 [epicatechin gallate]
[1]
  liberation of histamine from mast cells: suppress
